Results on two molecules are retold here after PMC10119423, “From PERK to RIPK1: Design, synthesis and evaluation of novel potent and selective necroptosis inhibitors” (Frontiers in Chemistry, 2023).

Where two headings read alike, the source gives them in different places.

For one assay, the system named is HT-29. As to the kind of experiment: Necroptosis (hTNF + TAK1i + zVAD.fmk) in HT-29 cells, Sytox Green. As to conditions: Homo sapiens, HT-29, read-out: Necroptosis hTNF + TAK1i + zVAD.fmk HT-29 IC50.
For a further assay, the system named is 300 kinases. Also noted: method as in Axten et al., 2013. As to conditions: 10 µM, out of 300 kinases; ref Axten et al., 2013; cited from earlier work.
The subject of a further assay is MEFs. As to the kind of experiment: RIPK1 kinase-dependent apoptosis (hTNF + TAK1i) in MEFs, Sytox Green. The assay is classed as cell-based. Particulars: Mus musculus, TAK1i + hTNF (100 pg/mL). From the text:
In MEFs, TNF together with the pan caspases inhibitor zVAD.fmk induces RIPK1-dependent necroptosis while TNF together with TAK1 inhibitor induces RIPK1 kinase-dependent apoptosis. We also included the conditions selected for the Western blot experiments, where necroptosis was induced by the combination of hTNF, zVAD.fmk and TAK1 inhibitor.

A further assay has as its system immortalized MEFs. As to the kind of experiment: RIPK1 kinase-dependent necroptosis (hTNF + zVAD.fmk) in MEFs, Sytox Green.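 Also: cell death taken as background-corrected Sytox Green fluorescence relative to the maximal signal of cells fully permeabilized with 0.1% Triton X-100.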 The assay is classed as cell-based, mouse. Particulars: Mus musculus, 24 h.
Another assay deals with T1, RIPK1 (Mus musculus, UniProt Q60855).
T1 construct: endogenous in cells; host or cells: immortalized mouse embryonic fibroblasts (MEFs, C57Bl6/J)
T1 sequence (Q60855 1-656): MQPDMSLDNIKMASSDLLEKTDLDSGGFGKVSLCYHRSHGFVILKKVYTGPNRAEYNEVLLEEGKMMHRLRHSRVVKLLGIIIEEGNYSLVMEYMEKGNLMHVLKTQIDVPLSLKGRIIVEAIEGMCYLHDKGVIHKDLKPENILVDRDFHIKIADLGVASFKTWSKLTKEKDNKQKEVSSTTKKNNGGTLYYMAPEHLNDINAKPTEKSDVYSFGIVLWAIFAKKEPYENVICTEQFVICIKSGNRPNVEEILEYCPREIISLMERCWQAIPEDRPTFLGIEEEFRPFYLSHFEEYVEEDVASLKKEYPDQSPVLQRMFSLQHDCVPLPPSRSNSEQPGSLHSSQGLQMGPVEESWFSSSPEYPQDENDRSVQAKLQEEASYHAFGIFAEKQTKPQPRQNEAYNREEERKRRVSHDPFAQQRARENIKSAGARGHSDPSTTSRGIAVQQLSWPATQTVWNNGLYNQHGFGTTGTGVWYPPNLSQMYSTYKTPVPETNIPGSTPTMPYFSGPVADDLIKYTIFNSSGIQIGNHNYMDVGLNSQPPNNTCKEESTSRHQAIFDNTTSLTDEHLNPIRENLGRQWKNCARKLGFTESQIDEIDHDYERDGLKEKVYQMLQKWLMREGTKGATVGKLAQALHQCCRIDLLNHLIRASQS
As to the kind of experiment: RIPK1 autophosphorylation (pS166) by Western blot in MEFs stimulated with hTNF + TAK1i + zVAD.fmk. The assay is classed as cell-based. As to conditions: immortalised MEFs, 30 min pretreatment with zVAD.fmk 50 μM, TAK1i 1 μM and compound, hTNF 20 ng/ml for 2.5 h, read-out: RIPK1 inhibition (IC50 estimated from a Western blot). The method, then:
MEFs were seeded in 6-well plates at a density of 300.000 cells/well in 2 mL. The next day, the cells were suspended in 1 mL of medium and pre-treated for 30 min with the indicated compounds at 1/5 dilutions series for PERK ranging from 5 to 0.04 µM and 1 μg/mL of Tm followed by 4 h treatment with 20 ng/mL of hTNF. For RIPK1, the cells were pre-treated at 1/10 dilutions series ranging from 10 to 0.01 nM, 50 µM zVAD.fmk and 1 µM TAKi before stimulation with 20 ng/mL of hTNF for 2.5 h. Then, the cells were washed two times with 1 mL of ice-cold PBS before lysis in 0.2 mL of Laemmli buffer 1x (10% (w/v) SDS, 50% glycerol, 0.5% bromophenol blue, 250 mM Tris–HCl pH 6.8) and 250 mM of dithiothreitol (DTT). The cell lysate was then collected and boiled at 95 °C for 10min and stored at −20°C. Proteins expression was later monitored by immunoblotting.
Activation of PERK was induced by stimulation of the cells with Tunicamycin, as previsouly reported ([Bull and Thiede, 2012]). More precisely, the immortalised MEFs were pre-incubated for 30 min with the analogues 18–34 at different concentrations (0.04, 0.2, 1, and 5 µM) prior to 4 h stimulation with Tunicamycin (1 μg/mL). […] Their activities were evaluated by comparing the intensity of the signal to unstimulated MEFs (considered as zero phosphorylation) and Tunicamycin stimulated cells (considered as 100% PERK phosphorylation). The 12 compounds (18–20, 22–29 and 34) that had lost their inhibitory capacity on PERK were then tested for their ability to inhibit RIPK1 as shown in Figures 6A–H. Activation and autophosphorylation of RIPK1 was induced by stimulating the cells with TNF in the presence of TAK1 inhibitor and of the pan-caspases inhibitor zVAD.fmk, a well established necroptotic trigger ([Vanlangenakker et al., 2011]). The MEFs were pre-incubated for 30 min with the different compounds (0.01 nM–1000 nM) and then stimulated with human TNF (20 ng/mL) for 2.5 h. Similar to the PERK assessment, IC50 values for RIPK1 inhibition were estimated as a range of concentrations, and are reported in Table 1. These experiments provide an estimation of the specificity of our analogues against PERK and RIPK1 in comparison to the benchmark GSK’157 already reported as a potent PERK and RIPK1 inhibitor.

The next assay concerns panel of 294 kinases. Set-up: method as in Axten et al., 2012. As to conditions: 10 µM, ref Axten et al., 2012; cited from earlier work.

Procedure for HT-29: In brief, the cells were seeded in duplicate at 10,000 cells per well in a 96-well adherent plate and incubated overnight at 37°C with 5% CO2. […] All the compound stock solutions were prepared in DMSO at 200 µM concentration. After stimulating the cells with human TNF at 20 ng/mL the plate was transferred to the incubator. Sytox Green intensity was measured in function of time at 0, 14 and 24 h with an excitation filter of 485 nm, an emission filter of 520 nm. The cell death was calculated by subtracting the background fluorescence from the induced Sytox Green fluorescence and by dividing the obtained result by the maximal fluorescence (minus the background fluorescence) obtained by permeabilization of the cells by using Triton X-100 at a final concentration of 0.1%. Curves were plotted in GraphPad 9 for the IC50 calculation.
To induce necroptosis in human colorectal adenocarcinoma cell line (HT-29) together with hTNF and the pan caspases inhibitor zVAD.fmk, TAK1 inhibitor is also needed.
Procedure for immortalized MEFs: In brief, the cells were seeded in duplicate at 10,000 cells per well in a 96-well adherent plate and incubated overnight at 37°C with 5% CO2. […] All the compound stock solutions were prepared in DMSO at 200 µM concentration. After stimulating the cells with human TNF at 20 ng/mL the plate was transferred to the incubator. […] The cell death was calculated by subtracting the background fluorescence from the induced Sytox Green fluorescence and by dividing the obtained result by the maximal fluorescence (minus the background fluorescence) obtained by permeabilization of the cells by using Triton X-100 at a final concentration of 0.1%. Curves were plotted in GraphPad 9 for the IC50 calculation.
Consequently, the compounds were evaluated for their potential protection of RIPK1-mediated necroptosis following human TNF stimulation.

The term IC50 denotes the midpoint of a concentration-inhibition curve. Consider `Cc1cccc(CC(=O)N2CCc3c2ccc(-c2cn(C)c4ncnc(N)c24)c3F)n1` [Compound 10, reference compound], for which the IC50 is 3.1 nM with HT-29; 3.7 nM with MEFs; 0.42 nM in the assay with immortalized MEFs (read-out: IC50 necroptosis); 0.7 nM with immortalized MEFs (MEFs, hTNF + zVAD.fmk (20 ng/mL), Table 2, read-out: Necroptosis hTNF + zVAD.fmk MEFs IC50); 0.1 to 1 nM at RIPK1. Moreover, the “number of kinases inhibited with more than 80%” value in the assay with 300 kinases is on record as 17.
Take `Cn1cc(-c2ccc3c(c2)CCN3C(=O)Cc2cccc(C(F)(F)F)c2)c2c(N)ncnc21` [GSK’414, 7-methyl-5-(1-{[3-(trifluoromethyl)phenyl]acetyl}-2,3-dihydro-1H-indol-5-yl)-7H-pyrrolo[2,3-d]pyrimidin-4-amine]: the “number of kinases inhibited with more than 85%” value in the assay with panel of 294 kinases is 20.
